From patent publication US11179471B2, “Peptide for cytosolic delivery” (priority 2017, dated 2021)
“Also recorded” adds a separate entry of the source. Where two headings read alike, the source gives them in different places. Non-standard residues stand in square brackets, D forms with d. No end group written: not given here. hArg = N=C(N)NCCCC[C@H](N)C(=O)O; Aad = N[C@@H](CCCC(=O)O)C(=O)O

Assays:
[1] = system: HeLa cells; experiment: Release of Alexa 488-dextran (10 kDa) into the cytoplasm, confocal microscopy; format: cell-based
Experimental: Cells; HeLa, peptides; 40 μM, Alexa 488-dextran (10 kDa); 200 μg/mL, treatment; 1 hr in α-MEM(−).
Cells; HeLa, peptides; 40 μM, Alexa 488-dextran (10 kDa); 200 μg/mL, treatment; 1 hr in α-MEM(−). The results are presented as means ±SE (n=3). **; p<0.01 (Student's t-test).
Cells; HeLa, peptides; 40 μM, Alexa 488-dextran (10 kDa); 200 μg/mL, treatment; 1 hr in α-MEM(−). Results are presented as means±SE (n=3). *; p<0.05, **; p<0.01, ***; p<0.001 (one-way ANOVA followed by the Tukey-Kramer honestly significant difference test (post-hoc test)).
(§1) In the presence of each peptide obtained in Example 1 (L17E, L17E/Q21E, HA/E1, HA/E2) (40 μM) or in the absence of the peptides (a control, no peptide), HeLa cells and Alexa 488-dextran (Molecular Probes, 10 kDa) (200 μg/mL) were treated in α-MEM(−) for 1 hour. The cells were washed, and observed with a confocal microscope.
as §1, with “L17Aad)” for “L17E/Q21E, HA/E1, HA/E2)”
as §1, with “(HAad, HA/E2, L17Aad, L17E)” for “(L17E, L17E/Q21E, HA/E1, HA/E2)”
When HeLa cells were incubated with Alexa 488-dextran (10 kDa) (200 μg/mL) as a macromolecular drug model in the presence of HAad (40 μM) in α-MEM(−) for 1 hour, Alexa 488-dextran release into about 75% of cells (cytosol) was observed. In contrast, when the incubation was performed in the presence of L17E, Alexa 488-dextran release into about 50% of the cells was observed.
HeLa cells, Alexa 488-dextran (Molecular Probes, 10 kDa) (200 μg/mL), and HAad; or HeLa cells, Alexa 488-dextran, (Molecular Probes, 10 kDa) (200 μg/mL), and HAad-homoR (20 μM) were treated in α-MEM(−) for 1 hour. The cells were washed, and observed with a confocal microscope.

[2] = system: HeLa cells; experiment: Nuclear accumulation of NLS-EGFP; format: cell-based; conditions: NLS-EGFP 10 μM; peptide 40 μM; α-MEM(−) 1 hour
Experimental: The cells and NLS-EGFP (10 μM) were incubated in the presence of HAad or L17E (40 μM each) in α-MEM(−) medium for 1 hour in the same manner as in Example 6. If NLS-EGFP is intracellularly released while maintaining its activity, localization of green fluorescence in the nuclei is observed. […] A high activity of HAad to release endosome-encapsulated substances was also confirmed in this system.

[3] = system: mitochondrial membrane of HeLa cells
Text: Mitochondrial membranes are considered to be rich in acidic lipid, as compared with cell membranes. Accordingly, the effects of the above peptides on a mitochondrial membrane were examined by JC-1 assay. A JC-1 reagent emits red (J-aggregate) fluorescence when the mitochondrial membrane is kept normal and the membrane potential is maintained; and the JC-1 reagent emits green (J-monomer) fluorescence when the mitochondrial membrane is damaged and the membrane potential is not kept normal. After HeLa cells were incubated with HAad, HA/E2, or L17E (40 μM) in α-MEM(−) for 1 hour, JC-1 assay was performed. The percentage of cells that emitted red fluorescence was assayed by flow cytometry.

[4] = system: HeLa cells; experiment: Release of Alexa 488-dextran (10 kDa) into the cytoplasm, confocal microscopy; format: cell-based; conditions: Alexa 488-dextran (10 kDa) 200 μg/mL, 1 hour, read-out: peptide concentration required to detect the signal of intracellularly released Alexa 488-dextran in 50% of the cells
[5] = system: NIH3T3 cells; experiment: Intracellular release of dextran (10 kDa) in NIH3T3 cells; format: cell-based; conditions: peptide 40 μM, dextran (10 kDa), DEME(−) medium 1 hour
Experimental: Intracellular release of dextran is more difficult in NIH3T3 cells than in HeLa cells. NIH3T3 cells and dextran (10 kDa) were incubated in the presence of HAad, HA/E2, or L17E (40 μM each) in DEME(−) medium for 1 hour in the same manner as in Example 6.

[6] = system: HeLa cells transfected with a plasmid encoding loxP-DsRed-loxP-EGFP; experiment: Genetic recombination assay by intracellular delivery of Cre protein (EGFP expression); format: cell-based; conditions: for proportion of GFP-expressing cells: Cre-His6 10 μM, peptide 40 μM, 1 hour, then 24 hours in α-MEM(+); for increase of genetic recombination as compared with no peptide administration: EGFP expression with no release peptide was 9%
Experimental: HeLa cells transfected with a plasmid encoding loxP-DsRed-loxP-EGFP, which were prepared in the same manner as in the Examples of PTL 2, were incubated with His-tag fusion Cre (Cre-Hiss) (10 μM) in the presence of HAad, HA/E2, or L17E (40 μM each) for 1 hour. This system was designed to express EGFP when intracellular release of Cre protein induces genetic recombination. […] The proportions of GFP-expressing cells in the cells treated with HAad, HA/E2, and L17E were 41%, 36%, and 30%, respectively. Considering the fact that the EGFP expression efficiency achieved with no administration of a release peptide was 9%, peptide administration of HAad, HA/E2, and L17E can be considered to increase genetic recombination by 32%, 27%, and […], respectively, as compared with no peptide administration.

[7] = Cell viability 24 hours after peptide treatment in the presence of serum (WST-8); format: cell-based; conditions: cells (cell line not given); peptide 10 μM, 20 μM and 40 μM; α-MEM(+) 24 hours; WST-8
Experimental: (§2) After the cells were incubated in the presence of HAad, HA/E2, or L17E (each 10 μM, 20 μM, and 40 μM) in α-MEM(+) medium for 24 hours, the cell viability (%) was evaluated by WST-8 assay (FIG. 14). The cell viability (%) after 24 hours with the use of any peptide at any concentration was almost 100%.

[8] = system: cells; experiment: as above; format: cell-based; conditions: 10-40 μM; α-MEM(+) 24 hours
Experimental: as §2

[9] = system: HeLa cells; experiment: Intracellular release of Alexa 488-labeled human immunoglobulin (IgG, circa 160 kDa); format: cell-based; conditions: for cells in which intracellular release of human immunoglobulin was observed: α-MEM(−) 1 hour
Experimental: The cells and human immunoglobulin fluorescently labeled with Alexa 488 (IgG, circa 160 kDa) (500 μg/mL) were incubated in the presence of HAad, HA/E2, or L17E (40 μM each) in α-MEM(−) medium for 1 hour in the same manner as in Example 6.
The cells and human immunoglobulin fluorescently labeled with Alexa 488 (IgG, circa 160 kDa) (50 μg/mL: 1/10 the volume of Example 8) were incubated in the presence of HAad or L17E (40 μM each) in α-MEM(−) medium for 1 hour.
In the presence of HAad or L17E (20 μM each: ½ the amount used in Examples 8 and 9), the cells and human immunoglobulin fluorescently labeled with Alexa 488 (IgG, circa 160 kDa) (500 μg/mL: the same amount as in Example 8) were incubated in α-MEM(−) medium for 1 hour. […] (In FIG. 9, the intracellular release achieved by treatment with a low concentration of HAad was 2.5 times the release achieved by L17E. With respect to the peptide concentration required to detect the signal of intracellularly released human immunoglobulin in 35% of the cells, the concentration of L17E is 40 μM, and the concentration of HAad is 20 μM, which is half the concentration of L17E.)

[10] = Helix content from CD spectra in the presence of POPC/POPG (3:1) liposomes; format: physicochemical; conditions: result in words (FIG. 1)
Experimental: The helix content was calculated by the method of Y. H. Chen et al., 1972, based on 222-nm molar ellipticity ([…]) using the following formula: Helicity (%)=−([θ]222+2340)/30300*100.
The helix content of the peptides obtained in Example 1 (L17E, L17E/Q21E, L17Aad, HA/E1, HA/E2, and HAad) was calculated in the presence of POPC/POPG (3:1) liposomes by the method of Y. H. Chen et al., 1972, based on 222-nm molar ellipticity ([θ]222) using the following formula: Helix content (%)=−([θ]222+2340)/30300*100. Further, the CD spectra of the peptides were measured.

[11] = HeLa, 40 μM, 1 hour in α-MEM(−), Lipofectamine LTX/pCI complex overnight in α-MEM(+)

Compound | cells in which Alexa 488-dextran release into the cytosol was observed ([1]; peptide 40 μM, Alexa 488-dextran (10 kDa) 200 μg/mL, 1 hour in α-MEM(−)) | cells in which localization of NLS-EGFP in the nuclei was observed [2] [%] | effect on mitochondrial membrane (cells emitting red JC-1 fluorescence), in words [3, 11] | EC50 [4] [µM] | cells in which intracellular release of dextran was observed [5] [%] | proportion of GFP-expressing cells [6] [%] | increase of genetic recombination as compared with no peptide administration [6] [%] | viability at 24 h [7] [%] | toxicity, in words [8] | peptide concentration required to detect the signal of intracellularly released human immunoglobulin in 35% of the cells ([9]; IgG 500 μg/mL, 1 hour) [µM] | cells in which intracellular release of human immunoglobulin was observed ([9]; peptide 20 μM, IgG 500 μg/mL) | cells in which intracellular release of human immunoglobulin was observed ([9]; peptide 40 μM, IgG 50 μg/mL) | cells in which intracellular release of human immunoglobulin was observed ([9]; peptide 40 μM, IgG 500 μg/mL) [%] | effect on mitochondrial membrane (cells emitting red JC-1 fluorescence), in words [3] | endosome-encapsulated substance (Alexa 488-dextran) releasing activity, in words ([1]; peptide 40 μM, Alexa 488-dextran 200 μg/mL, 1 hr, compared with L17E) | helicity in the presence of an acidic lipid membrane [10] | cells in which release of Alexa 488-dextran into the cytoplasm was observed ([1]; peptide 20 μM, Alexa 488-dextran (10 kDa) 200 μg/mL, 1 hour in α-MEM(−)) [%]
IWLTALKFLGKHAAKHEAKQQLSKL-NH2 [L17E, IWLTALX^5FLGX^6HAAX^7HEAX^8QQLSX^9L-amide, reference compound] | about 50% | ~56 | decreased slightly | 40 | ~17 | 30 | 22 | ~100 | no significant toxicity | 40 | about 15% | about 10% | ~35 |  |  |  | 
N#CC(C#N)=NNc1ccc(OC(F)(F)F)cc1 [FCCP, carbonyl cyanide-p-trifluoromethoxyphenylhydrazone, reference compound] |  |  |  |  |  |  |  |  |  |  |  |  |  | changed to emit green fluorescence |  |  | 
H-IWLTALKFLGKAAAKAEAKQELSKL-NH2 [HA/E2, IWLTALX^5FLGX^6AAAX^7AEAX^8QELSX^9L-amide] |  |  | no significant difference from the untreated case |  | ~25 | 36 | 27 | ~100 | no significant toxicity |  |  |  | ~45 |  | higher endosomal content release activity than L17E; also recorded: Significant outflow; also recorded: equivalent to that of HA/E1; also recorded: significantly higher endosome-encapsulated substance releasing activity than L17E | high helicity | 
H-IWLTALZFLGZAAAZAXAZQXLSZL-amide (H-IWLTAL[hArg]FLG[hArg]AAA[hArg]A[Aad]A[hArg]Q[Aad]LS[hArg]L-NH2; SMILES CC[C@H](C)[C@H](N)C(=O)N[C@@H](Cc1c[nH]c2ccccc12)C(=O)N[C@@H](CC(C)C)C(=O)N[C@H](C(=O)N[C@@H](C)C(=O)N[C@@H](CC(C)C)C(=O)N[C@@H](CCCCNC(=N)N)C(=O)N[C@@H](Cc1ccccc1)C(=O)N[C@@H](CC(C)C)C(=O)NCC(=O)N[C@@H](CCCCNC(=N)N)C(=O)N[C@@H](C)C(=O)N[C@@H](C)C(=O)N[C@@H](C)C(=O)N[C@@H](CCCCNC(=N)N)C(=O)N[C@@H](C)C(=O)N[C@@H](CCCC(=O)O)C(=O)N[C@@H](C)C(=O)N[C@@H](CCCCNC(=N)N)C(=O)N[C@@H](CCC(N)=O)C(=O)N[C@@H](CCCC(=O)O)C(=O)N[C@@H](CC(C)C)C(=O)N[C@@H](CO)C(=O)N[C@@H](CCCCNC(=N)N)C(=O)N[C@@H](CC(C)C)C(N)=O)[C@@H](C)O; listed as Lycosa carolinensis) [HAad-homoR] |  |  |  |  |  |  |  |  |  |  |  |  |  |  |  |  | 75
